Experimental data: US10766890B2, “Hepatitis B core protein modulators” (Assembly Biosciences, Inc., priority 2015, dated 2020)

Key:
HBV = assay: Viral load production in AD38 cells, quantitative PCR of the core sequence in supernatant; assay type: cell-based; details: Hepatitis B virus, 144 h, 10 μM compound, 6 days at 37° C., supernatant qPCR vs DMSO control, read-out: AD38 Viral Load (%) (VL with cmpd/VL in DMSO control) at 10 μM
Method: (§1) Example 63: Assay Measuring Activity of Compounds on Viral Production in and on Viability of AD38 Cells
(§2) AD38 cells were then re-suspended with 10 mL of Treatment Medium and counted. Wells of a collagen coated 96-well NUNC microtiter plate were seeded at 50,000/well in 180 μL of Treatment Medium, and 20 μL of in treatment media with either 10% DMSO (Control) or a 10× solution of compound in 10% DMSO was added. Plates were incubated for 6 days at 37° C.
Viral load production was assayed by quantitative PCR of the core sequence. […] The PCR mixture was incubated at 45° C. for 5 minutes, then 95° C. for 10 min, followed by 40 cycles of 10 seconds at 95° C. and 20 seconds at 60° C. Viral load was quantitated against known standards by using ViiA™ 7 Software. Viral load in the supernatant from wells with treated cells were compared against viral load in supernatant from DMSO control wells (≥3 per plate).

AD38 cells = assay: Viability of AD38 cells, Promega CellTiter-Glo; assay type: cell-based; details: 10 μM compound, 6 days, CellTiter-Glo luminescence, controls being 100%
Method: as §1, §2
At the end of compound treatment period cell viability was assessed using a Promega CellTiter-Glo protocol. All supernatant was removed the previously treated 96-well microtiter plate, and 50 μL Tetracycline-free treatment medium (DMEM/F12 (1:1), 1×Pen/step (cat#: 30-002-CL, Mediatech, Inc), with 2% FBS, Tet-system approved (cat#: 631106, Clontech), and 1% DMSO was added back to each well. Another 50 μL of CellTiter-Glo reagent solution (Promega, G7573) was then added at room temperature and the contents mixed for 2 minutes on an orbital shaker to induce cell lysis. This was followed by incubation at room temperature for 10 minutes to stabilize the luminescent signal. The luminescence was recorded for 0.2 seconds per well on a Tecan multimode platereader (Infinite M1000 pro). The luminescent signal from each well was normalized against that of untreated (DMSO) control wells. All results in Table 3 were reported with percent viability (with controls being 100%).

Row | SMILES | activity at 10 µM (HBV) [%] | AD38 Viability Normalized Result (cmpd/DMSO %) at 10 μM (AD38 cells) [%]
1 | COc1cccc(Sc2cccc(CNC(=O)c3ccc4c(c3)NC(=O)c3ccccc3S4(=O)=O)c2)c1 [Compound 812-A, N-(3-((3-methoxyphenyl)thio)benzyl)-11-oxo-10,11-dihydrodibenzo[b,f][1,4]thiazepine-8-carboxamide 5,5-dioxide] | 1.4 | 66
2 | COc1ccc(Sc2cccc(CNC(=O)c3ccc4c(c3)NC(=O)c3ccccc3S4(=O)=O)c2)cc1 [Compound 813, N-(3-((4-methoxyphenyl)thio)benzyl)-11-oxo-10,11-dihydrodibenzo[b,f][1,4]thiazepine-8-carboxamide 5,5-dioxide] | 1.2 | 44
